According to doi:10.1101/2021.04.14.439284v2 (biorxiv, 2021):

Assays:
[1] = target: T1, E. coli trehalose repressor TreR (Escherichia coli, UniProt P36673); assay: uSTA saturation transfer NMR; type: binding; settings: weak ligand
T1 sequence (P36673 1-315): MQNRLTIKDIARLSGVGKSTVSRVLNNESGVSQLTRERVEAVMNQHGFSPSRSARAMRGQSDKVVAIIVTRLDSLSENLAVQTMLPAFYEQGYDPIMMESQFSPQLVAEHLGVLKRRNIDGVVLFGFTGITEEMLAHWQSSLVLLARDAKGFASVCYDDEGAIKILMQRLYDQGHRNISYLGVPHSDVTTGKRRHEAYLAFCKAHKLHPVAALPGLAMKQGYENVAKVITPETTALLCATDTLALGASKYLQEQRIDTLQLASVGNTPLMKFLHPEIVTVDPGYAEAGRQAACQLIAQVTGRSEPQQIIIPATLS

[2] = target: T2, bovine serum albumin (BSA) (Bos taurus, UniProt P02769); assay: uSTA saturation transfer NMR, Bloch-McConnell fit; type: binding
T2 construct: gene ALB; commercial native protein (Sigma Aldrich), non-modified
T2 sequence (P02769 25-607): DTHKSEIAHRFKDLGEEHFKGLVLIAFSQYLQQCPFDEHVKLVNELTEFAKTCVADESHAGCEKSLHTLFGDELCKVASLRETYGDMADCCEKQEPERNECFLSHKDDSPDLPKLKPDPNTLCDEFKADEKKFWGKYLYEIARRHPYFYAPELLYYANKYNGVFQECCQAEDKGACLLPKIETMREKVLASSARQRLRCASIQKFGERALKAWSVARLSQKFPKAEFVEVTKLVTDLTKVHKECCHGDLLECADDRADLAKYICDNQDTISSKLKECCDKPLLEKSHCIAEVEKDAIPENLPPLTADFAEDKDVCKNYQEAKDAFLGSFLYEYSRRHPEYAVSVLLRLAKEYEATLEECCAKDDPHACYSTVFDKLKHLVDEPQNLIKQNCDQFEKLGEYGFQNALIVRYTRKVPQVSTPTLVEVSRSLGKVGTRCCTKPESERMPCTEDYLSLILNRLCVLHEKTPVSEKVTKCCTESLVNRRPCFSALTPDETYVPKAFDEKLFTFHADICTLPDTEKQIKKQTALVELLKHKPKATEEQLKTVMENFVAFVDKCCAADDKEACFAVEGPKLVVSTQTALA

Compound | transfer efficiency [1] | Kd [2] [µM]
OC[C@H]1O[C@H](O[C@H]2O[C@H](CO)[C@@H](O)[C@H](O)[C@H]2O)[C@H](O)[C@@H](O)[C@@H]1O [trehalose] | trehalose (Tre) binds only weakly to trehalose repressor protein TreR | 
N[C@@H](Cc1c[nH]c2ccccc12)C(=O)O [L-tryptophan] |  | 38 ± 15
